Patent US6143715A, “Hepatitis C inhibitor peptide analogues” (priority 1998, dated 2000)
Starred links: 1 amine or outer side, 2 acyl side, 3 side chain; linkers in the order of their positions; H or OH if unused. Non-standard residues stand in square brackets, D forms with d. Residues, ends and D or L forms follow the SMILES beside them. ξ: configuration not given here. *: point of attachment. Tetrahydroisoquinolin(2-yl) = c1ccc2c(c1)CCN(*)C2; NH(1S-phenylpropyl) = CC[C@H](N*)c1ccccc1; NH(1S-phenylethyl) = C[C@H](N*)c1ccccc1; X21 = CCCN(N*)C(=O)CCc1nc(-c2ccccn2)no1; X11 = CCCN(N*)C(=O)[C@H](O)c1ccccc1; X20 = O=C(N(CC(F)(F)F)N[*:1])[*:2]; X1 = CCCC(N*)C(=O)C(F)(F)C(F)(F)F; X15 = CCCC(N[*:1])C(=O)C(=O)[*:2]; Hyp = O=C(O)[C@@H]1C[C@@H](O)CN1; NHPiperonyl = c1cc2c(cc1CN*)OCO2; azaNva = CCCN(N[*:1])C(=O)[*:2]; X18 = CCCN(N*)C(=S)NCc1ccccc1; NMe(benzyl) = CN(Cc1ccccc1)*; Suc = O=C(CCC(=O)[*:2])[*:1]; X12 = C[C@H](N*)c1nnn[nH]1; Nva = CCC[C@H](N)C(=O)O; X14 = c1ccc2c(c1)CCN2*; X16 = CCCCN(N*)C(N)=O; NHBn = c1ccc(CN*)cc1; X13 = CCCN(N*)C(N)=O; X19 = CCCN(N*)C(C)=O; ξNva = CCCC(N)C(=O)O; Bn = c1ccc(C*)cc1

Each molecule was assayed against T1, HCV NS3 protease type 1b/NS4A cofactor peptide (Hepatitis C virus genotype 1b, UniProt P26663) (assay: biochemical). Details: not given.
T1 construct: recombinant HCV NS3 protease (amino acid 1027 to 1206) was cloned; made in house; host or cells: E. coli BL21(DE3)pLysS
T1 sequence (P26663 1027-1206, other chains not shown): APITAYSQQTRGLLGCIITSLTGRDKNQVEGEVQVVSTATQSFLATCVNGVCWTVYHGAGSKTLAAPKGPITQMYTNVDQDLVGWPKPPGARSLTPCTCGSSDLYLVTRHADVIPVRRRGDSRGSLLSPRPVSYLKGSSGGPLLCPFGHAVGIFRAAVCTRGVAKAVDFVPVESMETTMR
Set-up: species or system hepatitis C virus (HCV) genotype 1b
Source text: a) Cloning, expression and purification of the recombinant HCV NS3 protease type lb
Serum from an HCV-infected patient was obtained through an external collaboration (Bernard Willems MD, Hopital St-Luc, Montreal, Canada and Dr. Donald Murphy, Laboratoire de Sante Publique du Quebec, Ste-Anne de Bellevue, Canada). An engineered full-length cDNA template of the HCV genome was constructed from DNA fragments obtained by reverse transcription-PCR (RT-PCR) of serum RNA and using specific primers selected on the basis of homology between other genotype lb strains. […] A DNA fragment encoding the polyprotein precursor (NS3/NS4A/NS4B/NS5A/NS5B) was generated by PCR and introduced into eucaryotic expression vectors.
The NS3 protease expression in E. coli BL21(DE3)pLysS was induced by incubation with 1 mM IPTG for 3 h at 22° C. […] The cells were resuspended in lysis buffer (3.0 mL/g) consisting of 25 mM sodium phosphate, pH 7.5, 10% glycerol (v/v), 1 mM EDTA, 0.01% NP-40 and stored at -80° C. Cells were thawed and homogenized following the addition of 5 mM DTT. Magnesium chloride and DNase were then added to the homogenate at final concentrations of 20 mM and 20 μg/mL respectively. After a 25 min incubation at 4° C., the homogenate was sonicated and centrifuged at 15000× g for 30 min at 4° C. The pH of the supernatant was then adjusted to 6.5 using a 1M sodium phosphate solution.
Briefly, the supernatant from the bacterial extract was loaded on a SP HiTrap column (Pharmacia) previously equilibrated at a flow rate of 2 mL/min in buffer A (50 mM sodium phosphate, pH 6.5, 10% glycerol, 1 mM EDTA, 5 mM DTT, 0.01% NP-40). The column was then washed with buffer A containing 0.15 M NaCl and the protease eluted by applying 10 column volumes of a linear 0.15 to 0.3 M NaCl gradient. NS3 protease-containing fractions were pooled and diluted to a final NaCl concentration of 0.1 M. The enzyme was further purified on a HiTrap Heparin column (Pharmacia) equilibrated in buffer B (25 mM sodium phosphate, pH 7.5, 10% glycerol, 5 mM DTT, 0.01% NP-40). The sample was loaded at a flow rate of 3 mL/min. The column was then washed with buffer B containing 0.15 M NaCl at a flow rate of 1.5 mL/min. Two step washes were performed in the presence of buffer B containing 0.3 or 1M NaCl. […] Finally, the NS3 protease-containing fractions were applied on a Superdex 75 HiLoad 16/60 column (Pharmacia) equilibrated in buffer B containing 0.3 M NaCl.
The enzyme was stored at -80° C. and was thawed on ice and diluted just prior to use.
Recombinant HCV NS3 Protease/NS4A Cofactor Peptide Radiometric Assay
The enzyme was stored at -80° C., thawed on ice and diluted just prior to use in the assay buffer containing the NS4A cofactor peptide.
The substrate used for the NS3 protease/[…] cofactor peptide radiometric assay, DDIVPC-SMSYTW, is cleaved between the cysteine and the serine residues by the enzyme. The sequence DDIVPC-SMSYTW corresponds to the NS5A/NS5B natural cleavage site in which the cysteine residue in […] has been substituted for a proline. […] (molar ratio enzyme: cofactor 1:100) in the absence or presence of inhibitors. The separation of substrate from products is performed by adding avidin-coated agarose beads to the assay mixture followed by filtration.
Assay buffer: 50 mM Tris HCl, pH 7.5, 30% (w/v) glycerol, 1 mg/mL BSA, 1 mM TCEP (TCEP added just prior to use from a 1 M stock solution in water)
Substrate: […], […] final concentration (from a 2 mM stock solution in DMSO stored at -20° C. to avoid oxidation).
Molecule `CCCC(NC(=O)[C@@H]1C[C@@H](OCc2ccccc2)CN1C(=O)[C@@H](NC(=O)[C@@H](NC(=O)[C@@H](CCC(=O)O)NC(=O)[C@H](CC(=O)O)NC(C)=O)[C@@H](C)CC)C(C)C)C(=O)C(F)(F)C(F)(F)F` (some centres unmarked) [Compound 102] (Ac-D[dE]IV[Hyp](Bn)-X1) has an IC50 of 0.21 µM.
With `CCCC(NC(=O)[C@@H]1C[C@@H](OCc2ccccc2)CN1C(=O)[C@@H](NC(=O)[C@@H](NC(=O)[C@@H](CCC(=O)O)NC(=O)[C@H](CC(=O)O)NC(C)=O)[C@@H](C)CC)C(C)C)C(=O)C(=O)NCc1ccccc1` (some centres unmarked) [Compound 103] (Ac-D[dE]IV[Hyp](Bn)[X15]-NHBn) the IC50 was 0.023 µM.
`CCCC(NC(=O)[C@@H]1C[C@@H](OCc2ccccc2)CN1C(=O)[C@@H](NC(=O)[C@@H](NC(=O)[C@@H](CCC(=O)O)NC(=O)[C@H](CC(=O)O)NC(C)=O)[C@@H](C)CC)C(C)C)C(N)=O` (some centres unmarked) [Compound 105] (Ac-D[dE]IV[Hyp](Bn)[ξNva]-NH2) was tested, and the IC50 was 54 µM.
Molecule `CCC[C@H](NC(=O)[C@@H]1C[C@@H](OCc2ccccc2)CN1C(=O)[C@@H](NC(=O)[C@@H](NC(=O)[C@@H](CCC(=O)O)NC(=O)[C@H](CC(=O)O)NC(C)=O)[C@@H](C)CC)C(C)C)C(=O)NCc1ccccc1` [Compound 107] (Ac-D[dE]IV[Hyp](Bn)[Nva]-NHBn) has an IC50 of 3 µM.
`CCCC(NC(=O)[C@@H]1C[C@@H](OCc2ccccc2)CN1C(=O)[C@@H](NC(=O)[C@@H](NC(=O)[C@@H](CCC(=O)O)NC(=O)[C@H](CC(=O)O)NC(C)=O)[C@@H](C)CC)C(C)C)C(=O)N1CCc2ccccc2C1` (some centres unmarked) [Compound 111] (Ac-D[dE]IV[Hyp](Bn)[ξNva]-{Tetrahydroisoquinolin(2-yl)}) showed an IC50 of 20 µM.
`CCCC(NC(=O)[C@@H]1C[C@@H](OCc2ccccc2)CN1C(=O)[C@@H](NC(=O)[C@@H](NC(C)=O)C1CCCCC1)C(C)C)C(=O)C(=O)NCc1ccncc1` (some centres unmarked) [Compound 116] showed an IC50 of 25 µM.
For `CCCN(NC(=O)[C@@H]1C[C@@H](OCc2ccccc2)CN1C(=O)[C@@H](NC(=O)[C@@H](NC(=O)[C@@H](CCC(=O)O)NC(=O)[C@H](CC(=O)O)NC(C)=O)[C@@H](C)CC)C(C)C)C(=O)NCc1ccccc1` [Compound 203] (Ac-D[dE]IV[Hyp](Bn)[azaNva]-NHBn), the IC50 was 0.59 µM.
In the case of `CCCN(NC(=O)[C@@H]1C[C@@H](OCc2ccccc2)CN1C(=O)[C@@H](NC(=O)[C@@H](NC(=O)[C@@H](CCC(=O)O)NC(=O)[C@H](CC(=O)O)NC(C)=O)[C@@H](C)CC)C(C)C)C(=O)NCC(=O)O` [Compound 207] (Ac-D[dE]IV[Hyp](Bn)[azaNva]G-OH), the IC50 is reported as 3.75 µM.
For `CCCN(NC(=O)[C@@H]1C[C@@H](OCc2ccccc2)CN1C(=O)[C@@H](NC(=O)[C@@H](NC(=O)[C@@H](CCC(=O)O)NC(=O)[C@H](CC(=O)O)NC(C)=O)[C@@H](C)CC)C(C)C)C(C)=O` [Compound 208] (Ac-D[dE]IV[Hyp](Bn)-X19), the IC50 was 14.5 µM.
`CCCN(NC(=O)[C@@H]1C[C@@H](OCc2ccccc2)CN1C(=O)[C@@H](NC(=O)[C@@H](NC(=O)[C@@H](CCC(=O)O)NC(=O)[C@H](CC(=O)O)NC(C)=O)[C@@H](C)CC)C(C)C)C(N)=O` [Compound 209] (Ac-D[dE]IV[Hyp](Bn)-X13) gave an IC50 of 20.5 µM.
Work on `CCCCN(NC(=O)[C@@H]1C[C@@H](OCc2ccccc2)CN1C(=O)[C@@H](NC(=O)[C@@H](NC(=O)[C@@H](CCC(=O)O)NC(=O)[C@H](CC(=O)O)NC(C)=O)[C@@H](C)CC)C(C)C)C(N)=O` [Compound 211] (Ac-D[dE]IV[Hyp](Bn)-X16) yielded an IC50 of 47 µM.
With `CCCN(NC(=O)[C@@H]1C[C@@H](OCc2ccccc2)CN1C(=O)[C@@H](NC(=O)[C@@H](NC(=O)[C@@H](CCC(=O)O)NC(=O)[C@H](CC(=O)O)NC(C)=O)[C@@H](C)CC)C(C)C)C(=O)N[C@@H](CC)c1ccccc1` [Compound 214] (Ac-D[dE]IV[Hyp](Bn)[azaNva]-{NH(1S-phenylpropyl)}) the IC50 was 0.44 µM.
`CCCN(NC(=O)[C@@H]1C[C@@H](OCc2ccccc2)CN1C(=O)[C@@H](NC(=O)[C@@H](NC(=O)[C@@H](CCC(=O)O)NC(=O)[C@H](CC(=O)O)NC(C)=O)[C@@H](C)CC)C(C)C)C(=O)[C@H](O)c1ccccc1` [Compound 216] (Ac-D[dE]IV[Hyp](Bn)-X11) was tested, and the IC50 was 9.6 µM.
`CCCN(NC(=O)[C@@H]1CCCN1C(=O)[C@@H](NC(=O)[C@@H](NC(=O)[C@@H](CC(=O)O)NC(=O)CCC(=O)O)[C@@H](C)CC)C(C)C)C(=O)N[C@@H](C)c1ccccc1` [Compound 220] (Suc-[dD]IVP[azaNva]-{NH(1S-phenylethyl)}) showed an IC50 of 6.9 µM.
`CCCN(NC(=O)[C@@H]1C[C@@H](OCc2ccccc2)CN1C(=O)[C@@H](NC(=O)[C@@H](NC(=O)[C@@H](CCC(=O)O)NC(=O)[C@H](CC(=O)O)NC(C)=O)[C@@H](C)CC)C(C)C)C(=O)N(C)Cc1ccccc1` [Compound 223] (Ac-D[dE]IV[Hyp](Bn)[azaNva]-{NMe(benzyl)}) was tested, and the IC50 was 11 µM.
`CCCN(NC(=O)[C@@H]1C[C@@H](OCc2ccccc2)CN1C(=O)[C@@H](NC(=O)[C@@H](NC(=O)[C@@H](CCC(=O)O)NC(=O)[C@H](CC(=O)O)NC(C)=O)[C@@H](C)CC)C(C)C)C(=S)NCc1ccccc1` [Compound 224] (Ac-D[dE]IV[Hyp](Bn)-X18) was tested, and the IC50 was 5 µM.
Work on `CCCN(NC(=O)[C@@H]1C[C@@H](OCc2ccccc2)CN1C(=O)[C@@H](NC(=O)[C@@H](NC(=O)[C@@H](CCC(=O)O)NC(=O)[C@H](CC(=O)O)NC(C)=O)[C@@H](C)CC)C(C)C)C(=O)N1CCc2ccccc21` [Compound 226] (Ac-D[dE]IV[Hyp](Bn)[azaNva]-X14) yielded an IC50 of 6.3 µM.
Work on `CCCN(NC(=O)[C@@H]1C[C@@H](OCc2ccccc2)CN1C(=O)[C@@H](NC(=O)[C@@H](NC(C)=O)C1CCCCC1)C(C)C)C(=O)C(=O)O` [Compound 227] yielded an IC50 of 39.5 µM.
`CC[C@H](C)[C@H](NC(=O)[C@@H](CCC(=O)O)NC(=O)[C@H](CC(=O)O)NC(C)=O)C(=O)N[C@H](C(=O)N1C[C@H](OCc2ccccc2)C[C@H]1C(=O)NN(CC(F)(F)F)C(=O)N[C@@H](C)c1ccccc1)C(C)C` [Compound 228] (Ac-D[dE]IV[Hyp](Bn)[X20]-{NH(1S-phenylethyl)}) was tested, and the IC50 was 0.63 µM.
`CCCN(NC(=O)[C@@H]1C[C@@H](OCc2ccccc2)CN1C(=O)[C@@H](NC(=O)[C@@H](NC(=O)[C@@H](CCC(=O)O)NC(=O)[C@H](CC(=O)O)NC(C)=O)[C@@H](C)CC)C(C)C)C(=O)NCc1ccc2c(c1)OCO2` [Compound 231] (Ac-D[dE]IV[Hyp](Bn)[azaNva]-NHPiperonyl) showed an IC50 of 0.5 µM.
For `CCCN(NC(=O)[C@@H]1C[C@@H](OCc2ccccc2)CN1C(=O)[C@@H](NC(=O)[C@@H](NC(=O)[C@@H](CCC(=O)O)NC(=O)[C@H](CC(=O)O)NC(C)=O)[C@@H](C)CC)C(C)C)C(=O)CCc1nc(-c2ccccn2)no1` [Compound 232] (Ac-D[dE]IV[Hyp](Bn)-X21), the IC50 was 3.2 µM.
In the case of `CCCN(NC(=O)[C@@H]1C[C@@H](OCc2ccccc2)CN1C(=O)[C@@H](NC(=O)[C@@H](NC(=O)[C@@H](CCC(=O)O)NC(=O)[C@H](CC(=O)O)NC(C)=O)[C@@H](C)CC)C(C)C)C(=O)N[C@@H](C)c1nnn[nH]1` [Compound 233] (Ac-D[dE]IV[Hyp](Bn)[azaNva]-X12), the IC50 is reported as 1.5 µM.

Same assay, conditions: IC50: concentration required to obtain 50% inhibition in the NS3 protease/NS4A cofactor peptide radiometric assay, enzyme:cofactor 1:100, 40 min at 23° C.
Molecule `CCCC(NC(=O)[C@@H]1C[C@@H](OCc2ccccc2)CN1C(=O)[C@@H](NC(=O)[C@@H](NC(=O)[C@@H](CCC(=O)O)NC(=O)[C@H](CC(=O)O)NC(C)=O)[C@@H](C)CC)C(C)C)P(=O)(Oc1ccccc1)Oc1ccccc1` (single isomer, unassigned) [Compound 302] has an IC50 of 26 µM.
